Reference: PubChem BioAssay (NCI)
Values joined by “and” are separate entries in the source; they are usually repeats but may differ in a detail not shown here. Equal values may be shown once.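 Cells were grown in 96-well plates and exposed to each compound for 48 hours at five concentrations; endpoints were interpolated linearly between bracketing concentrations, or set to the highest concentration if not reached. GI50: concentration for 50% inhibition of growth. At the TGI there is no net growth.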

How the values were obtained:
Assay in all cases: NCI tumour cell line growth inhibition, 48 h
HS 578T breast = system: HS 578T breast
786-0 renal = system: 786-0 renal
SF-539 CNS = system: SF-539 CNS
K-562 leukemia = system: K-562 leukemia
T-47D breast = system: T-47D breast
NCI/ADR-RES ovarian = system: NCI/ADR-RES ovarian
BT-549 breast = system: BT-549 breast
SNB-75 CNS = system: SNB-75 CNS
SW-620 colon = system: SW-620 colon
A549 NSCLC = system: A549 NSCLC
SNB-19 CNS = system: SNB-19 CNS
SF-268 CNS = system: SF-268 CNS
IGROV1 ovarian = system: IGROV1 ovarian
UACC-257 melanoma = system: UACC-257 melanoma
KM20L2 colon = system: KM20L2 colon
SR leukemia = system: SR leukemia
NCI-H460 lung = system: NCI-H460 lung
M19-MEL melanoma = system: M19-MEL melanoma
SK-MEL-5 melanoma = system: SK-MEL-5 melanoma
SN12C renal = system: SN12C renal
DU-145 prostate = system: DU-145 prostate
OVCAR-8 ovarian = system: OVCAR-8 ovarian
SNB-78 CNS = system: SNB-78 CNS
CAKI-1 renal = system: CAKI-1 renal
NCI-H226 lung = system: NCI-H226 lung
SF-295 CNS = system: SF-295 CNS
HOP-62 NSCLC = system: HOP-62 NSCLC
HOP-92 NSCLC = system: HOP-92 NSCLC
PC-3 prostate = system: PC-3 prostate
LOX IMVI melanoma = system: LOX IMVI melanoma
HCT-15 colon = system: HCT-15 colon
DLD-1 colon = system: DLD-1 colon
NCI-H522 lung = system: NCI-H522 lung
XF 498 CNS = system: XF 498 CNS
HL-60(TB) leukemia = system: HL-60(TB) leukemia
TK-10 renal = system: TK-10 renal
DMS 273 small cell lung = system: DMS 273 small cell lung
RXF 393 renal = system: RXF 393 renal
HCC-2998 colon = system: HCC-2998 colon
COLO 205 colon = system: COLO 205 colon
RPMI-8226 leukemia = system: RPMI-8226 leukemia
MDA-MB-231 breast = system: MDA-MB-231 breast
SK-OV-3 ovarian = system: SK-OV-3 ovarian
MALME-3M melanoma = system: MALME-3M melanoma
NCI-H23 lung = system: NCI-H23 lung
CCRF-CEM leukemia = system: CCRF-CEM leukemia
DMS 114 small cell lung = system: DMS 114 small cell lung
M14 melanoma = system: M14 melanoma
OVCAR-5 ovarian = system: OVCAR-5 ovarian
HT29 colon = system: HT29 colon
LXFL 529 NSCLC = system: LXFL 529 NSCLC
UO-31 renal = system: UO-31 renal
KM12 colon = system: KM12 colon

Q: For COc1cccc2c1C(CO)N1C(C#N)C3CC(C(=O)O)C(C1C2)N3C (stereo unspecified), which GI50 (HS 578T breast) is on record?
A: 538 nM

Q: What about the TGI (HS 578T breast) of the same compound?
A: 3080 nM

Q: What about the GI50 (786-0 renal) of the same compound?
A: 236 nM

Q: What about the TGI (786-0 renal) of the same compound?
A: 3800 nM and 757 nM

Q: And the GI50 (SF-539 CNS)?
A: 195 nM

Q: What about the TGI (SF-539 CNS) of the same compound?
A: 3110 nM and 1020 nM

Q: And the GI50 (K-562 leukemia)?
A: 275 nM

Q: And the TGI (K-562 leukemia)?
A: > 100000 nM

Q: And the GI50 (T-47D breast)?
A: 135 nM

Q: And the GI50 (NCI/ADR-RES ovarian)?
A: 194 nM

Q: What about the TGI (NCI/ADR-RES ovarian) of the same compound?
A: 549 nM and 1120 nM

Q: And the TGI (BT-549 breast)?
A: 739 nM and 1940 nM

Q: And the GI50 (SNB-75 CNS)?
A: 298 nM

Q: And the TGI (SNB-75 CNS)?
A: 5420 nM and 1990 nM

Q: And the GI50 (SW-620 colon)?
A: 467 nM

Q: What about the GI50 (A549 NSCLC) of the same compound?
A: 4740 nM

Q: And the GI50 (SNB-19 CNS)?
A: 212 nM

Q: What about the TGI (SNB-19 CNS) of the same compound?
A: > 15500 nM

Q: And the GI50 (SF-268 CNS)?
A: 313 nM

Q: And the TGI (SF-268 CNS)?
A: 8750 nM and 57300 nM

Q: And the TGI (IGROV1 ovarian)?
A: 9670 nM and 4640 nM

Q: And the GI50 (UACC-257 melanoma)?
A: 331 nM

Q: What about the TGI (UACC-257 melanoma) of the same compound?
A: 3960 nM and 2110 nM

Q: And the GI50 (KM20L2 colon)?
A: 207 nM

Q: And the GI50 (SR leukemia)?
A: 30.8 nM

Q: What about the TGI (SR leukemia) of the same compound?
A: 7200 nM

Q: And the GI50 (NCI-H460 lung)?
A: 1240 nM

Q: And the GI50 (M19-MEL melanoma)?
A: 256 nM

Q: And the GI50 (SK-MEL-5 melanoma)?
A: 383 nM

Q: And the TGI (SK-MEL-5 melanoma)?
A: 4070 nM and 985 nM

Q: And the GI50 (SN12C renal)?
A: 373 nM

Q: What about the TGI (SN12C renal) of the same compound?
A: 8340 nM and > 17800 nM

Q: And the GI50 (DU-145 prostate)?
A: 365 nM

Q: And the TGI (DU-145 prostate)?
A: > 100000 nM

Q: And the GI50 (OVCAR-8 ovarian)?
A: 372 nM

Q: What about the GI50 (SNB-78 CNS) of the same compound?
A: 334 nM

Q: And the TGI (SNB-78 CNS)?
A: 7970 nM and 12000 nM

Q: And the GI50 (CAKI-1 renal)?
A: 404 nM

Q: What about the GI50 (NCI-H226 lung) of the same compound?
A: 2470 nM and 327 nM

Q: And the TGI (NCI-H226 lung)?
A: 5380 nM and 1230 nM

Q: What about the GI50 (SF-295 CNS) of the same compound?
A: 420 nM

Q: What about the TGI (SF-295 CNS) of the same compound?
A: 27200 nM

Q: And the TGI (HOP-62 NSCLC)?
A: 8150 nM and 3730 nM

Q: And the GI50 (HOP-92 NSCLC)?
A: 422 nM

Q: And the TGI (HOP-92 NSCLC)?
A: 7630 nM and > 18400 nM

Q: And the GI50 (PC-3 prostate)?
A: 462 nM

Q: And the TGI (PC-3 prostate)?
A: > 100000 nM

Q: And the GI50 (LOX IMVI melanoma)?
A: 254 nM

Q: And the GI50 (HCT-15 colon)?
A: 380 nM

Q: What about the TGI (DLD-1 colon) of the same compound?
A: 9070 nM

Q: And the GI50 (NCI-H522 lung)?
A: 238 nM

Q: What about the TGI (NCI-H522 lung) of the same compound?
A: 874 nM and 389 nM

Q: What about the GI50 (XF 498 CNS) of the same compound?
A: 1790 nM

Q: What about the GI50 (HL-60(TB) leukemia) of the same compound?
A: 239 nM

Q: And the TGI (HL-60(TB) leukemia)?
A: 4530 nM and 811 nM

Q: What about the TGI (TK-10 renal) of the same compound?
A: 9270 nM

Q: What about the GI50 (DMS 273 small cell lung) of the same compound?
A: 335 nM

Q: And the TGI (DMS 273 small cell lung)?
A: 8250 nM

Q: What about the GI50 (RXF 393 renal) of the same compound?
A: 203 nM

Q: What about the TGI (RXF 393 renal) of the same compound?
A: 1850 nM and 571 nM

Q: And the GI50 (HCC-2998 colon)?
A: 3140 nM

Q: What about the TGI (HCC-2998 colon) of the same compound?
A: 8210 nM and 2780 nM

Q: What about the GI50 (COLO 205 colon) of the same compound?
A: 112 nM

Q: And the TGI (COLO 205 colon)?
A: 2660 nM and 1200 nM

Q: What about the GI50 (RPMI-8226 leukemia) of the same compound?
A: 63.7 nM

Q: And the TGI (RPMI-8226 leukemia)?
A: 3940 nM and 1540 nM

Q: What about the GI50 (MDA-MB-231 breast) of the same compound?
A: 271 nM

Q: What about the TGI (MDA-MB-231 breast) of the same compound?
A: 933 nM and 521 nM

Q: And the GI50 (SK-OV-3 ovarian)?
A: 2600 nM

Q: And the TGI (SK-OV-3 ovarian)?
A: 8340 nM and > 31100 nM

Q: And the GI50 (MALME-3M melanoma)?
A: 458 nM

Q: And the TGI (MALME-3M melanoma)?
A: 4600 nM and 1230 nM

Q: What about the GI50 (NCI-H23 lung) of the same compound?
A: 222 nM

Q: And the TGI (NCI-H23 lung)?
A: 4420 nM and 558 nM

Q: And the GI50 (CCRF-CEM leukemia)?
A: 87.7 nM

Q: What about the TGI (CCRF-CEM leukemia) of the same compound?
A: 8550 nM and > 17000 nM

Q: And the GI50 (DMS 114 small cell lung)?
A: 159 nM

Q: What about the GI50 (M14 melanoma) of the same compound?
A: 363 nM

Q: What about the TGI (M14 melanoma) of the same compound?
A: 6910 nM and 1420 nM

Q: What about the GI50 (OVCAR-5 ovarian) of the same compound?
A: 183 nM

Q: And the TGI (HT29 colon)?
A: 6550 nM

Q: What about the TGI (LXFL 529 NSCLC) of the same compound?
A: 6670 nM

Q: And the GI50 (UO-31 renal)?
A: 365 nM

Q: And the TGI (UO-31 renal)?
A: 4360 nM and 2460 nM

Q: What about the GI50 (KM12 colon) of the same compound?
A: 679 nM

Q: What about the TGI (KM12 colon) of the same compound?
A: 8300 nM and > 26000 nM
